Measurements as given in ChEMBL document CHEMBL3045383, “Synthesis, characterization, anticancer activity, and QSAR-studies of some new tetrahydropyrimidines” (2011).

What was measured:
Assay type in all cases: functional
[1] = tested on: CAKI-1; assay: Cytotoxicity against Homo sapiens (human) CAKI-1 cells after 48 hr by SRB assay; settings: CAKI-1, 48 h
[2] = tested on: PC-3; assay: Cytotoxicity against Homo sapiens (human) PC3 cells after 48 hr by SRB assay; settings: PC-3, 48 h
[3] = tested on: COLO 205; assay: Cytotoxicity against Homo sapiens (human) COLO205 cells after 48 hr by SRB assay; settings: COLO 205, 48 h
[4] = tested on: SF-268; assay: Cytotoxicity against Homo sapiens (human) SF268 cells after 48 hr by SRB assay; settings: SF-268, 48 h
[5] = tested on: IGROV-1; assay: Cytotoxicity against Homo sapiens (human) IGROV1 cells after 48 hr by SRB assay; settings: IGROV-1, 48 h
[6] = tested on: SK-MEL-5; assay: Cytotoxicity against Homo sapiens (human) SK-MEL-5 cells after 48 hr by SRB assay; settings: SK-MEL-5, 48 h
[7] = tested on: HOP-92; assay: Cytotoxicity against Homo sapiens (human) HOP92 cells after 48 hr by SRB assay; settings: HOP-92, 48 h
[8] = tested on: NCI/ADR-RES; assay: Cytotoxicity against Homo sapiens (human) NCI/ADR-RES cells after 48 hr by SRB assay
[9] = tested on: HL-60(TB); assay: Cytotoxicity against Homo sapiens (human) HL-60(TB) cells after 48 hr by SRB assay; settings: HL-60, 48 h

Compound | GI50 [1] [µM] | GI50 [2] [µM] | GI50 [3] [µM] | GI50 [4] [µM] | GI50 [5] [µM] | GI50 [6] [µM] | GI50 [7] [µM] | GI50 [8] [µM] | GI50 [9] [µM]
CC1=C(C(=O)Nc2ccc(F)c(Cl)c2)C(c2cccc(Oc3ccccc3)c2)NC(=S)N1 (stereo not drawn) | 12.6 | 12 | 17.8 | 8.91 | 10.7 | 8.91 | 20.9 | 15.5 | 17.4
CC1=C(C(=O)Nc2ccc(F)c(Cl)c2)C(c2cccc(Cl)c2)NC(=S)N1 (stereo not drawn) | 39.8 | 25.1 | 4.17 | 10 | 14.1 | 8.32 | 32.4 | 15.8 | 16.2
CC1=C(C(=O)Nc2ccc(Cl)c(Cl)c2)C(c2cccc(O)c2)NC(=S)N1 (stereo not drawn) | 22.4 | 14.1 | 7.08 | 15.8 | 19.1 | 10 | 13.5 | 15.8 | 11.2
CC1=C(C(=O)Nc2ccc(Cl)c(Cl)c2)C(c2ccccc2Cl)NC(=S)N1 (stereo not drawn) | 17.8 | 20 | 7.94 | 8.91 | 15.8 | 10 | 1.2 | 15.8 | 15.5
CC1=C(C(=O)Nc2ccc(F)c(Cl)c2)C(c2cccc(Oc3ccccc3)c2)NC(=O)N1 (stereo not drawn) | 10 | 22.4 | 6.31 | 8.51 | 7.94 | 7.59 | 40.7 | 16.2 | 13.8
CC1=C(C(=O)Nc2ccc(Cl)c(Cl)c2)C(c2cccc(Oc3ccccc3)c2)NC(=S)N1 (stereo not drawn) | 8.51 | 9.77 | 9.33 | 6.17 | 7.76 | 7.94 | 13.2 | 15.5 | 83.2
CC1=C(C(=O)Nc2ccc(Cl)c(Cl)c2)C(c2ccccc2O)NC(=O)N1 (stereo not drawn) | 39.8 | 33.9 | 28.2 | 28.2 | 25.1 | 12.6 | 50.1 | 17.8 | 50.1
CC1=C(C(=O)Nc2ccc(F)c(Cl)c2)C(c2ccccc2Cl)NC(=S)N1 (stereo not drawn) | 31.6 | 20.4 | 24 | 14.8 | 17.8 | 12.3 | 50.1 | 16.6 | 25.7
CC1=C(C(=O)Nc2ccc(F)c(Cl)c2)C(c2cccc(O)c2)NC(=S)N1 (stereo not drawn) | 50.1 | 25.1 | 22.4 | 17.8 | 22.9 | 11.2 | 50.1 | 17 | 25.7
COc1cccc(C2NC(=S)NC(C)=C2C(=O)Nc2ccc(Cl)c(Cl)c2)c1 (stereo not drawn) | 17.8 | 14.5 | 9.33 | 12.6 | 15.8 | 9.55 | 12.6 | 16.6 | 49
CC1=C(C(=O)Nc2ccc(Cl)c(Cl)c2)C(c2cccc(Cl)c2)NC(=O)N1 (stereo not drawn) | 12.6 | 50.1 | 7.94 | 11.2 | 10.5 | 9.55 | 45.7 | 16.6 | 13.5
COc1cccc(C2NC(=S)NC(C)=C2C(=O)Nc2ccc(F)c(Cl)c2)c1 (stereo not drawn) | 49 | 23.4 | 26.9 | 18.2 | 27.5 | 13.2 | 50.1 | 15.5 | 17.4
